Assay results from patent US6369090B1, “Fungicidal mixture” (BASF Aktiengesellschaft, priority 1997, dated 2002).

Columns and labels:
Puccinia recondita = assay: Curative action against Puccinia recondita on wheat (brown rust of wheat); type: in vivo; details: single active ingredient, 7 days
Experimental: The active ingredients, separately or together, were formulated as a 10% emulsion in a mixture of 63% by weight of cyclohexanone and 27% by weight of emulsifier, and diluted with water to the desired concentration.
The expected efficacies of the mixtures of the active ingredients were determined using Colby's formula [R. S. Colby, Weeds 15, 20-22 (1967)] and compared with the observed efficacies.
Colby's formula: E=x+y−x·y/100
E expected efficacy, expressed in % of the untreated control, when using the mixture, disclosed in DE Appl. 19617232.2, of the active ingredients I and II (=active ingredient mixture A) and the active ingredients III at the concentrations a and c […]
x efficacy, expressed in % of the untreated control, when using a mixture, disclosed in DE Appl. 19617232.2, of the active ingredients I and II at a concentration of a y efficacy, expressed in % of the untreated control, when using active ingredient III at a concentration of c Curative action against Puccinia recondita on wheat (brown rust of wheat) Leaves of wheat seedlings cv. “Frühgold” which had been grown in pots were dusted with spores of brown rust (Puccinia recondita). The pots were then kept for 24 hours in a chamber of high atmospheric humidity (90 to 95%) at 20 to 22° C. During this time, the spores germinated and the germinal tubes penetrated into the leaf tissue. The next day, the infected plants were sprayed to runoff point with an aqueous preparation of active ingredient which had been prepared from a stock solution comprising 10% of active ingredient, 63% of cyclohexanone and 27% of emulsifier. After the spray coating had dried on, the test plants were cultivated in a greenhouse at temperatures from 20 to 22° C. and at 65 to 70% relative atmospheric humidity for 7 days. The extent of the rust fungus development on the leaves was then determined.
(§1) The visually determined values for the percentage of infected leaf area were converted into efficacies as percent of the untreated control. Efficacy 0 means the same disease level as in the untreated control, efficacy 100 means 0% disease. The expected efficacies for active ingredient combinations were determined using Colby's formula (Colby, S. R. “Calculating synergistic and antagonistic responses of herbicide combinations”, Weeds, 15, p. 20-22, 1967) and compared with the observed efficacies.

[1] = test system: Erysiphe graminis forma specialis tritici; assay: Activity against powdery mildew of wheat (protective, wheat seedlings cv. Frühgold); type: in vivo; details: single active ingredient, 7 days
From the text: The active ingredients, separately or together, were formulated as a 10% emulsion in a mixture of 63% by weight of cyclohexanone and 27% by weight of emulsifier, and diluted with water to the desired concentration. […]
Activity against powdery mildew of wheat
Leaves of wheat seedlings cv. “Frühgold” which had been grown in pots were sprayed to runoff point with an aqueous preparation of active ingredient which had been prepared from a stock solution comprising 10% of active ingredient, 63% of cyclohexanone and 27% of emulsifier and, 24 hours after the spraycoating had dried on, dusted with spores of powdery mildew of wheat (Erysiphe graminis forma specialis tritici). The test plants were subsequently placed in a greenhouse at from 20 to 24° C. and a relative atmospheric humidity of 60 to 90%. After 7 days, the extent of mildew development was determined visually as percent infection of the total leaf area.
as §1

**Q.** Which “Efficacy in % of the untreated control” value (Puccinia recondita; 0.31 ppm in the spray liquor) does the source give for `Fc1ccc([C@]2(Cn3cncn3)O[C@@H]2c2ccccc2Cl)cc1` (racemic) [III.8, (2RS, 3RS)-1-[3-(2-chlorophenyl)-2,3-epoxy-2-(4-fluorophenyl)propyl]-1H-1,2,4-triazole] here?
**A.** 0%

**Q.** Which “Efficacy in % of the untreated control” value ([1]; 0.31 ppm in the spray liquor) does the source give for `CCCC1COC(Cn2cncn2)(c2ccc(Cl)cc2Cl)O1` (racemic) [III.24, (±)-1-{[2-(2,4-dichlorophenyl)-4-propyl-1,3-dioxolan-2-yl]methyl}-1H-1,2,4-triazole] here?
**A.** 8%

**Q.** What about the “Efficacy in % of the untreated control” value ([1]; 1.25 ppm in the spray liquor) of the same compound?
**A.** 8%

**Q.** And the “Efficacy in % of the untreated control” value (Puccinia recondita; 0.31 ppm in the spray liquor)?
**A.** 0%

**Q.** What about the “Efficacy in % of the untreated control” value (Puccinia recondita; 1.25 ppm in the spray liquor) of the same compound?
**A.** 0%

**Q.** `C[Si](Cn1cncn1)(c1ccc(F)cc1)c1ccc(F)cc1` [III.12, bis-(4-fluorophenyl)(methyl)-(1H-1,2,4-triazol-1-ylmethyl)silane] was tested. Which “Efficacy in % of the untreated control” value (Puccinia recondita; 0.31 ppm in the spray liquor) did it give?
**A.** 0%

**Q.** What about the “Efficacy in % of the untreated control” value (Puccinia recondita; 1.25 ppm in the spray liquor) of the same compound?
**A.** 0%

**Q.** What does the source list for `CCCN(CCOc1c(Cl)cc(Cl)cc1Cl)C(=O)n1ccnc1` [III.23, N-propyl-N-[(2,4,6-trichlorophenoxy)ethyl]imidazole-1-carboxamide]?
**A.** Efficacy in % of the untreated control ([1]; 0.31 ppm in the spray liquor): 0%; Efficacy in % of the untreated control ([1]; 1.25 ppm in the spray liquor): 0%; Efficacy in % of the untreated control (Puccinia recondita; 0.31 ppm in the spray liquor): 0%; Efficacy in % of the untreated control (Puccinia recondita; 1.25 ppm in the spray liquor): 0%

**Q.** With `CC(C)(C)C(O)(CCc1ccc(Cl)cc1)n1cncn1` (stereo not drawn) [III.27, 1-(4-chlorophenyl)-4,4-dimethyl-3-(1H-1,2,4-triazol-1yl)pentan-3-ol] as the compound, how does the “Efficacy in % of the untreated control” value ([1]; 0.31 ppm in the spray liquor) read?
**A.** 8%

**Q.** And the “Efficacy in % of the untreated control” value ([1]; 1.25 ppm in the spray liquor)?
**A.** 39%

**Q.** And the “Efficacy in % of the untreated control” value (Puccinia recondita; 0.31 ppm in the spray liquor)?
**A.** 0%

**Q.** And the “Efficacy in % of the untreated control” value (Puccinia recondita; 1.25 ppm in the spray liquor)?
**A.** 0%
